Data as given in ChEMBL document CHEMBL1126522, “Indolocarbazoles. 1. Total synthesis and protein kinase inhibiting characteristics of compounds related to K-252c” (Bioorg Med Chem Lett, 1993).

Target: not listed separately
Test: Displacement of ATP from myosin light chain kinase

| Ki | SMILES |
| --- | --- |
| 0.7 nM | O=C1NC(=O)c2c1c1c3ccccc3n3c1c1c2c2ccccc2n1[C@@H]1O[C@H]3C[C@@H]1CO |

Target: Protein kinase C (PKC) (Rattus norvegicus) (UniProt P05696+P68403+P09216+P63319+P09215+Q64617+Q9WTQ0+P09217)
Test: Inhibition of partially purified rat brain protein kinase C

| SMILES | Inhibition |
| --- | --- |
| O=C1NC(=O)c2c1c1c3ccccc3n3c1c1c2c2ccccc2n1[C@@H]1O[C@H]3C[C@H]1C(=O)O | 20 nM |
| O=C1NC(O)c2c1c1c3ccccc3n3c1c1c2c2ccccc2n1[C@H]1CC[C@@H]3O1 (stereo partly drawn) | 50 nM |
| NN1C(=O)c2c(c3c4ccccc4n4c3c3c2c2ccccc2n3[C@@H]2CC[C@H]4O2)C1=O | > 5000 nM |
| O=C1NC(=O)c2c1c1c3ccccc3n3c1c1c2c2ccccc2n1[C@@H]1O[C@H]3C[C@@]1(O)C(=O)O | 6 nM |
| O=C1NCc2c1c1c3ccccc3n3c1c1c2c2ccccc2n1[C@H]1CC[C@@H]3O1 | 18 nM |
| S=C1NC(=S)c2c1c1c3ccccc3n3c1c1c2c2ccccc2n1[C@H]1CC[C@@H]3O1 | 42 nM |
| O=C1NC(=O)c2c1c1c3ccccc3n3c1c1c2c2ccccc2n1[C@H]1CC[C@@H]3O1 | 19 nM |
| NC1=NC(=O)c2c1c1c3ccccc3n3c1c1c2c2ccccc2n1[C@@H]1CC[C@H]3O1 | 13 nM |
| O=C1NC(=S)c2c1c1c3ccccc3n3c1c1c2c2ccccc2n1[C@H]1CC[C@@H]3O1 | 58 nM |
| CN1C(=O)c2c(c3c4ccccc4n4c3c3c2c2ccccc2n3[C@@H]2CC[C@H]4O2)C1=O | > 5000 nM |

Further lines, results first:

| Inhibition | SMILES |
| --- | --- |
| 4 nM | CN(C)C[C@@H]1C[C@@H]2O[C@H]1n1c3ccccc3c3c4c(c5c6ccccc6n2c5c31)C(=O)NC4=O |
| 1.7 nM | O=C1NC(=O)c2c1c1c3ccccc3n3c1c1c2c2ccccc2n1[C@@H]1O[C@H]3C[C@@H]1CO |
| 5 nM | C=C1C[C@@H]2O[C@H]1n1c3ccccc3c3c4c(c5c6ccccc6n2c5c31)C(=O)NC4=O |
| 0.5 nM | CNC(=O)[C@@H]1C[C@@H]2O[C@H]1n1c3ccccc3c3c4c(c5c6ccccc6n2c5c31)C(=O)NC4=O |
| 2.4 nM | O=C1NC(=O)c2c1c1c3ccccc3n3c1c1c2c2ccccc2n1[C@@H]1O[C@H]3C[C@H]1CO |

Target: Receptor tyrosine-protein kinase erbB-2 (Homo sapiens, UniProt P04626)
Sequence (P04626 whole entry): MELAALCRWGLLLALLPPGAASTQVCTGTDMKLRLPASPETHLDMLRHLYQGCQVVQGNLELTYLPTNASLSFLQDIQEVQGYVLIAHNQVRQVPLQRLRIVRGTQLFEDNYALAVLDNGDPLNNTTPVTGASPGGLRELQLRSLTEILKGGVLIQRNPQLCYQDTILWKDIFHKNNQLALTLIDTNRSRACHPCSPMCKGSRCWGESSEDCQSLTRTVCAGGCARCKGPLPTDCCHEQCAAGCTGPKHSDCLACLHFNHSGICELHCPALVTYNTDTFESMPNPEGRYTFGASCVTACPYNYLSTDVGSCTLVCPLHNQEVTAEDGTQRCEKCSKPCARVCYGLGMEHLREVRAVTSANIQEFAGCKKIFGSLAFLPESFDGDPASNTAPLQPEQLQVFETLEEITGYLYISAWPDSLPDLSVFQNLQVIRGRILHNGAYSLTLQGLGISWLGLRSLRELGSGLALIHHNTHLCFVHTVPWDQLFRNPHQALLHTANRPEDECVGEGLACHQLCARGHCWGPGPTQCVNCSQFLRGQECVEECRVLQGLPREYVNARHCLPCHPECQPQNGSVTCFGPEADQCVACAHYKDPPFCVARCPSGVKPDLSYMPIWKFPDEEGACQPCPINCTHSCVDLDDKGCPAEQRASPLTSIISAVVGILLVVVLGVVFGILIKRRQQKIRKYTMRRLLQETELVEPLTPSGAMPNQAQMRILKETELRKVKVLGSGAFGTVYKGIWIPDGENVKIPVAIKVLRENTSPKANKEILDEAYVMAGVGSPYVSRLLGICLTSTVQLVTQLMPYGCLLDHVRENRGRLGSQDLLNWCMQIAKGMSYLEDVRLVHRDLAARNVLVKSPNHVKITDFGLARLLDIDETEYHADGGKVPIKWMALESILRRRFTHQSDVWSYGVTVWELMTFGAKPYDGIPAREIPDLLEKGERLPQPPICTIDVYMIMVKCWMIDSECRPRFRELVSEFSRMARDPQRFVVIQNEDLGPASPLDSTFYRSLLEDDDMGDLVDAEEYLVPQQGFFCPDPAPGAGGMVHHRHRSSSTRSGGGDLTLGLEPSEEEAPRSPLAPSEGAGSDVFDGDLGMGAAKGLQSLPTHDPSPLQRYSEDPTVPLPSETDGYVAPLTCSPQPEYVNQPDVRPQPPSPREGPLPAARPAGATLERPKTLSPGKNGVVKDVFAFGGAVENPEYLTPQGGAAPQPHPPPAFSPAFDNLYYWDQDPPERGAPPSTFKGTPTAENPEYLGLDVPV
Test: Inhibition of neu (erb-B2) HER2 kinase

| IC50 | SMILES |
| --- | --- |
| 250 nM | O=C1NC(=O)c2c1c1c3ccccc3n3c1c1c2c2ccccc2n1[C@@H]1O[C@H]3C[C@@H]1CO |

Target: cAMP-dependent protein kinase (PKA) (Homo sapiens, UniProt P22694+P17612+P22612)
Test: Inhibition of cAMP-dependent protein kinase (PKA)
Type: protein assay

| IC50 | SMILES |
| --- | --- |
| 18.5 nM | O=C1NC(=O)c2c1c1c3ccccc3n3c1c1c2c2ccccc2n1[C@@H]1O[C@H]3C[C@@H]1CO |
